Columns and labels:
THR beta-LBD = biological target: T1, THR beta-LBD (Homo sapiens, UniProt P10828); assay: THR-β Coactivator Peptide Recruitment Assay (LanthaScreen TR-FRET); format: biochemical; settings: TR-FRET coactivator recruitment, THR beta-LBD 0.5 nM; for EC50: read-out: THRβ EC50
T1 construct: THR beta-LBD (the final concentration is 0.5 nM) was added to the 384-well assay plate; purchased Invitrogen PV4686
T1 sequence (P10828 217-461 limits assumed): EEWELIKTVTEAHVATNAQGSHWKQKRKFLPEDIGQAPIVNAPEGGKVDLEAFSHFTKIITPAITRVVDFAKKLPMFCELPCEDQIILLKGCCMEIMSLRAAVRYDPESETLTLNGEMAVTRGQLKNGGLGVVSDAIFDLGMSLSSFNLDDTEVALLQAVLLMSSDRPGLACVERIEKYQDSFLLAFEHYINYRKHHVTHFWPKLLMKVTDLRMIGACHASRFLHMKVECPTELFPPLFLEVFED
Procedure, shortened: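 Agonist-driven coactivator recruitment read as a 520/495 nm TR-FRET emission ratio after 2 h at room temperature. Final concentrations: THR beta-LBD 0.5 nM, fluorescein-SRC2-2 peptide 0.1 nM, terbium anti-GST antibody 2 nM. EC50 from four-parameter dose-response fitting.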

THR alpha-LBD = biological target: T2, THR alpha-LBD (Homo sapiens, UniProt P10827); assay: THR-α Coactivator Peptide Recruitment Assay (LanthaScreen TR-FRET); format: biochemical; settings: TR-FRET coactivator recruitment, THR alpha-LBD 0.25 nM; for EC50: read-out: THRα EC50
T2 construct: except that THR alpha-LBD of a final concentration 0.25 nM was used; purchased Invitrogen PV4687
Procedure, shortened: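 TR-FRET coactivator recruitment with THR alpha-LBD at 0.25 nM final, Fluorescein-SRC2-2 peptide 0.1 nM and Tb-labeled anti-GST antibody 2 nM; 2 h incubation at room temperature. 520/495 nm emission ratio fitted to a four-parameter sigmoidal curve to give EC50.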

T2 sequence (P10827 163-410 isoform P10827-2 limits assumed, other chains not shown): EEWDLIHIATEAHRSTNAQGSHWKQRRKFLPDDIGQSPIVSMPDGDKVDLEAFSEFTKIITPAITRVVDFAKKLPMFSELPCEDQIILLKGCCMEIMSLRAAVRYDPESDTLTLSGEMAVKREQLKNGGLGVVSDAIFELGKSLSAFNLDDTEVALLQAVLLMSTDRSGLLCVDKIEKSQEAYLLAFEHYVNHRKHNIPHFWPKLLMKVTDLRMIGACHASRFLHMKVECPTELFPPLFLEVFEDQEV

For `C[C@]1(O)C[C@@H](NS(=O)(=O)c2cc(Oc3c(Cl)cc(-n4nc(C(F)F)c(=O)[nH]c4=O)cc3Cl)ncc2O)C1` [Compound 138, 2-(2,6-dichloro-4-(6-(difluoromethyl)-3,5-dioxo-4,5-dihydro-1,2,4-triazin-2(3H)-yl)phenoxy)-5-hydroxy-N-((1s,3s)-3-hydroxy-3-methylcyclobutyl)pyridine-4-sulfonamide], the “THRβ Emax” value (THR beta-LBD) was “C (<75)”, the EC50 (THR beta-LBD) was greater than 100 nM and the “THRα Emax” value (THR alpha-LBD) was “C (<40)”. The EC50 (THR alpha-LBD) was greater than 1000 nM.
In the case of `CO[C@H]1C[C@H](NS(=O)(=O)c2cc(Oc3c(Cl)cc(-n4nc(C(F)F)c(=O)[nH]c4=O)cc3Cl)ncc2O)C1` [Compound 139, 2-(2,6-dichloro-4-(6-(difluoromethyl)-3,5-dioxo-4,5-dihydro-1,2,4-triazin-2(3H)-yl)phenoxy)-5-hydroxy-N-((1r,3r)-3-methoxycyclobutyl)pyridine-4-sulfonamide], the “THRβ Emax” value (THR beta-LBD) is reported as “B (75~90)”, the EC50 (THR beta-LBD) is reported as 2 to 20 nM and the “THRα Emax” value (THR alpha-LBD) is reported as “B (40~85)”. It also gave an EC50 (THR alpha-LBD) of 200 to 1000 nM.
`CO[C@H]1C[C@@H](NS(=O)(=O)c2cc(Oc3c(Cl)cc(-n4nc(C(F)F)c(=O)[nH]c4=O)cc3Cl)ncc2O)C1` [Compound 140, 2-(2,6-dichloro-4-(6-(difluoromethyl)-3,5-dioxo-4,5-dihydro-1,2,4-triazin-2(3H)-yl)phenoxy)-5-hydroxy-N-((1s,3s)-3-methoxycyclobutyl)pyridine-4-sulfonamide] was tested, and the “THRβ Emax” value (THR beta-LBD) was “B (75~90)”, the EC50 (THR beta-LBD) was 20 to 100 nM and the “THRα Emax” value (THR alpha-LBD) was “B (40~85)”. It also gave an EC50 (THR alpha-LBD) of 200 to 1000 nM.
In the case of `O=c1[nH]c(=O)n(-c2cc(Cl)c(Oc3cc(S(=O)(=O)N4CC[C@@H](O)C4)c(O)cn3)c(Cl)c2)nc1C(F)F` [Compound 141, (R)-2-(3,5-dichloro-4-((5-hydroxy-4-((3-hydroxypyrrolidin-1-yl)sulfonyl)pyridin-2-yl)oxy)phenyl)-6-(difluoromethyl)-1,2,4-triazine-3,5(2H,4H)-dione], the “THRβ Emax” value (THR beta-LBD) is reported as “B (75~90)”, the EC50 (THR beta-LBD) is reported as 2 to 20 nM and the “THRα Emax” value (THR alpha-LBD) is reported as “B (40~85)”. For the same compound, the EC50 (THR alpha-LBD) was 2 to 200 nM.
With `O=c1[nH]c(=O)n(-c2cc(Cl)c(Oc3cc(S(=O)(=O)NC45CC(O)(C4)C5)c(O)cn3)c(Cl)c2)nc1C(F)F` [Compound 142, 2-(2,6-dichloro-4-(6-(difluoromethyl)-3,5-dioxo-4,5-dihydro-1,2,4-triazin-2(3H)-yl)phenoxy)-5-hydroxy-N-(3-hydroxybicyclo[1.1.1]pentan-1-yl)pyridine-4-sulfonamide] the “THRβ Emax” value (THR beta-LBD) was “B (75~90)”, the EC50 (THR beta-LBD) was 20 to 100 nM and the “THRα Emax” value (THR alpha-LBD) was “B (40~85)”. The EC50 (THR alpha-LBD) was 200 to 1000 nM.
With `O=c1[nH]c(=O)n(-c2cc(Cl)c(Oc3cc(S(=O)(=O)N[C@H]4CC[C@H](O)CC4)c(O)cn3)c(Cl)c2)nc1C(F)F` [Compound 143, 2-(2,6-dichloro-4-(6-(difluoromethyl)-3,5-dioxo-4,5-dihydro-1,2,4-triazin-2(3H)-yl)phenoxy)-5-hydroxy-N-((1r,4r)-4-hydroxycyclohexyl)pyridine-4-sulfonamide] the “THRβ Emax” value (THR beta-LBD) was “B (75~90)”, the EC50 (THR beta-LBD) was 2 to 20 nM and the “THRα Emax” value (THR alpha-LBD) was “B (40~85)”. For the same compound, the EC50 (THR alpha-LBD) was 200 to 1000 nM.
In the case of `O=c1[nH]c(=O)n(-c2cc(Cl)c(Oc3cc(S(=O)(=O)N[C@H]4CC[C@@H](O)CC4)c(O)cn3)c(Cl)c2)nc1C(F)F` [Compound 144, 2-(2,6-dichloro-4-(6-(difluoromethyl)-3,5-dioxo-4,5-dihydro-1,2,4-triazin-2(3H)-yl)phenoxy)-5-hydroxy-N-((1s,4s)-4-hydroxycyclohexyl)pyridine-4-sulfonamide], the “THRβ Emax” value (THR beta-LBD) is reported as “C (<75)”, the EC50 (THR beta-LBD) is reported as 20 to 100 nM and the “THRα Emax” value (THR alpha-LBD) is reported as “C (<40)”. The EC50 (THR alpha-LBD) was greater than 1000 nM.
For `O=C(NC1CCC1)c1cc(Oc2c(Cl)cc(-n3nc(C(F)F)c(=O)[nH]c3=O)cc2Cl)ncc1O` [Compound 145, N-cyclobutyl-2-[2,6-dichloro-4-[6-(difluoromethyl)-3,5-dioxo-1,2,4-triazin-2-yl]phenoxy]-5-hydroxy-pyridine-4-carboxamide], the “THRβ Emax” value (THR beta-LBD) was “B (75~90)”, the EC50 (THR beta-LBD) was 2 to 20 nM and the “THRα Emax” value (THR alpha-LBD) was “B (40~85)”. For the same compound, the EC50 (THR alpha-LBD) was 2 to 200 nM.
In the case of `CS(=O)(=O)c1cc(Oc2c(Cl)cc(-n3nc(C(F)F)c(=O)[nH]c3=O)cc2Cl)ncc1O` [Compound 146, 2-[3,5-dichloro-4-[(5-hydroxy-4-methylsulfonyl-2-pyridyl)oxy]phenyl]-6-(difluoromethyl)-1,2,4-triazine-3,5-dione], the “THRβ Emax” value (THR beta-LBD) is reported as “A (90~110)”, the EC50 (THR beta-LBD) is reported as 2 to 20 nM and the “THRα Emax” value (THR alpha-LBD) is reported as “A (85~110)”. For the same compound, the EC50 (THR alpha-LBD) was 2 to 200 nM.
In the case of `CS(=O)(=O)c1cc(Oc2c(Cl)cc(-n3nc(C#N)c(=O)[nH]c3=O)cc2Cl)ncc1O` [Compound 147, 2-[3,5-dichloro-4-[(5-hydroxy-4-methylsulfonyl-2-pyridyl)oxy]phenyl]-3,5-dioxo-1,2,4-triazine-6-carbonitrile], the “THRβ Emax” value (THR beta-LBD) is reported as “A (90~110)”, the EC50 (THR beta-LBD) is reported as 20 to 100 nM and the “THRα Emax” value (THR alpha-LBD) is reported as “B (40~85)”. For the same compound, the EC50 (THR alpha-LBD) was 200 to 1000 nM.
`O=c1[nH]c(=O)n(-c2cc(Cl)c(Oc3cc(S(=O)(=O)NC4CS(=O)(=O)C4)c(O)cn3)c(Cl)c2)nc1C(F)F` [Compound 148, 2-[2,6-dichloro-4-[6-(difluoromethyl)-3,5-dioxo-1,2,4-triazin-2-yl]-phenoxy]-N-(1,1-dioxothietan-3-yl)-5-hydroxy-pyridine-4-sulfonamide] was tested, and the “THRβ Emax” value (THR beta-LBD) was “B (75~90)”, the EC50 (THR beta-LBD) was 2 to 20 nM and the “THRα Emax” value (THR alpha-LBD) was “A (85~110)”. The EC50 (THR alpha-LBD) was 2 to 200 nM.
`N#Cc1cc(O)c(S(=O)(=O)N[C@H]2C[C@H](O)C2)cc1Oc1c(Cl)cc(-n2nc(C(F)F)c(=O)[nH]c2=O)cc1Cl` [Compound 149, 4-cyano-5-[2,6-dichloro-4-[6-(difluoromethyl)-3,5-dioxo-1,2,4-triazin-2-yl]phenoxy]-2-hydroxy-N-(3-hydroxycyclobutyl)benzenesulfonamide] was tested, and the “THRβ Emax” value (THR beta-LBD) was “C (<75)”, the EC50 (THR beta-LBD) was greater than 100 nM and the “THRα Emax” value (THR alpha-LBD) was “C (<40)”. It also gave an EC50 (THR alpha-LBD) greater than 1000 nM.
With `N#Cc1nn(-c2cc(Cl)c(Oc3cc(S(=O)(=O)NC4CCC4)c(O)cn3)c(Cl)c2)c(=O)[nH]c1=O` [Compound 150] the “THRβ Emax” value (THR beta-LBD) was “A (90~110)”, the EC50 (THR beta-LBD) was 2 to 20 nM and the “THRα Emax” value (THR alpha-LBD) was “A (85~110)”. For the same compound, the EC50 (THR alpha-LBD) was 2 to 200 nM.
For `CCS(=O)(=O)c1cc(Oc2c(Cl)cc(-n3nc(C(F)F)c(=O)[nH]c3=O)cc2Cl)ncc1O` [Compound 151, 2-[3,5-dichloro-4-[(4-ethylsulfonyl-5-hydroxy-2-pyridyl)oxy]phenyl]-6-(difluoromethyl)-1,2,4-triazine-3,5-dione], the “THRβ Emax” value (THR beta-LBD) was “A (90~110)”, the EC50 (THR beta-LBD) was less than 2 nM and the “THRα Emax” value (THR alpha-LBD) was “A (85~110)”. The EC50 (THR alpha-LBD) was 2 to 200 nM.
With `O=c1[nH]c(=O)n(-c2cc(Cl)c(Cc3ccc(O)c(S(=O)(=O)NC4CS(=O)(=O)C4)c3)c(Cl)c2)nc1C(F)F` [Compound 152, 5-[[2,6-dichloro-4-[6-(difluoromethyl)-3,5-dioxo-1,2,4-triazin-2-yl]phenyl]methyl]-N-(1,1-dioxothietan-3-yl)-2-hydroxy-benzenesulfonamide] the “THRβ Emax” value (THR beta-LBD) was “A (90~110)”, the EC50 (THR beta-LBD) was less than 2 nM and the “THRα Emax” value (THR alpha-LBD) was “A (85~110)”. It also gave an EC50 (THR alpha-LBD) of less than 2 nM.
With `O=c1[nH]c(=O)n(-c2cc(Cl)c(Oc3cc(S(=O)(=O)C4CCC4)c(O)cn3)c(Cl)c2)nc1C(F)F` [Compound 153, 2-[3,5-dichloro-4-[(4-cyclobutylsulfonyl-5-hydroxy-2-pyridyl)-oxy]phenyl]-6-(difluoromethyl)-1,2,4-triazine-3,5-dione] the “THRβ Emax” value (THR beta-LBD) was “A (90~110)”, the EC50 (THR beta-LBD) was less than 2 nM and the “THRα Emax” value (THR alpha-LBD) was “A (85~110)”. The EC50 (THR alpha-LBD) was 2 to 200 nM.

Reference: US12291518B2, “Thyroid hormone receptor agonists and use thereof” (Eccogene Inc., priority 2020, dated 2025)
